System: malignant (mammary carcinoma) tumor (EMT6/CTX)
Test: Tumor growth of malignant (mammary carcinoma) tumor (EMT6/CTX) in a mouse experimental model
Assay type: in vivo, CB6F1 male mice
Details: for effect on tumor growth, agent alone: i.p.; for inhibition of tumor growth, alone and in combination with Hamsa treatment (summary of experiments 1-4): SB-18 and CHAPS 40 mg/kg, SB-12 2.5 and 40 mg/kg
Protocol: In order to determine the effect of SB-18, CHAPS, SB-12, SB-16-4 and SB-18-4 each alone and each in combination with 4 other agents (“Hamsa treatment”), on tumor growth of a malignant (mammary carcinoma) tumor (EMT6/CTX) in a mouse experimental model, six (6) experiments were carried out as described below:
CB6F1 male mice (a cross between Balbc and C57bl) at age of 7-8 weeks were anesthetized with Ketamine:Xelazine in a 0.85:0.15 ratio respectively, and diluted 1:1 with double distilled water (DDW) and injected i.m. in volume of 50 uL.
100 uL of EMT6/CTX cells 3.6×10^5 cells/mouse were injected subcutaneously (s.c.) to the anesthetized mice, after shaving their back (to enable accurate measurement of tumor-volume). The mice were divided into four groups, as outlined below, 6-8 animals in each group. The mice were marked with Picric acid on head (H), tail (T), head and tail (H&T), right leg (RL), left leg (LL), right and left legs (SY), back and blank and were individually monitored.
“Hamsa treatment” as used herein consists of the following active ingredients in the following concentrations: • Cimetidine 60 mg/kg (Farchemia s.r.l. Italy). • Diclofenac 30 mg/kg (Unique Pharma India). • Cyclophosphamide (CTX) 60 mg/kg (Hisun China) • Sulfasalazine (SSZ) (Farchemia s.r.l. Italy)—50 mg/kg on days of cytotoxic treatment, i.e. on days when cyclophosphamide and diclofenac are administered; 150 mg/kg on days of non-cytotoxic treatment, i.e. on days when no cyclophosphamide and disclofenac are administered.
The preparation and administration protocol of the Hamsa treatment is outlined in Table 1:
SB-12, CHAPS and SB-18 (HOPAX Chem. Mfg. Ltd Taiwan) were prepared separately as aqueous solutions, then mixed 1:1 with Vehicle or the cytotoxic or non-cytotoxic stage of the Hamsa treatment and twice the volume was injected i.p. Due to its lower solubility, SB-18 was dissolved by mild warming (˜45° C.) of its aqueous solution in the presence of 2% Solutol HS-15 (BASF-Germany). In groups that received SB-12, CHAPS or SB-18, this agent was injected daily. […]
SB-16-4 was first dissolved in DDW containing 2% Solutol HS-15 with heating to 40° C. to 8 mg/mL concentration. The stock solution was diluted with non-cytotoxic and cytotoxic treatments in 1:1 ratio.
SB-18-4 was first dissolved in DDW containing 4% Solutol HS-15 with heating to 40° C. to 8 mg/mL concentration. The stock solution was diluted with non-cytotoxic and cytotoxic treatments in 1:1 ratio
• 1. 7 mice received vehicle (DDW+2% Solutol—BASF, Germany) • 2. 8 mice received Hamsa treatment • 3. 8 mice received Hamsa treatment in combination with SB-18 (40 mg/kg). • 4. 6 mice received SB-18 in vehicle (40 mg/kg)
• 1. 7 mice received vehicle (DDW+2% Solutol—BASF, Germany) • 2. 8 mice received Hamsa treatment • 3. 7 mice received Hamsa treatment in combination with CHAPS (40 mg/kg). • 4. 7 mice received CHAPS in vehicle (40 mg/kg)
• 1. 7 mice received vehicle (DDW+2% Solutol—BASF, Germany) • 2. 6 mice received Hamsa treatment. • 3. 7 mice received Hamsa treatment with SB-12 (2.5 mg/kg). • 4. 7 mice received SB-12 in vehicle (2.5 mg/kg)
• 1. 7 mice received vehicle (DDW+2% Solutol—BASF, Germany) • 2. 7 mice received Hamsa treatment • 3. 7 mice received Hamsa treatment with SB-12 (40 mg/kg).
• 1. 6 mice received vehicle (DDW+2% Solutol—BASF, Germany) • 2. 6 mice received Hamsa treatment • 3. 7 mice received Hamsa treatment in combination with SB-16-4 (40 mg/kg). • 4. 5 mice received SB-16-4 in vehicle (40 mg/kg)
• 1. 7 mice received vehicle (DDW+2% Solutol—BASF, Germany) • 2. 8 mice received Hamsa treatment • 3. 7 mice received Hamsa treatment in combination with SB-18-4 (40 mg/kg). • 4. 7 mice received SB-18-4 in vehicle (40 mg/kg)
Five (5) or six (6) days after inoculation, when the tumor is already palpable, the treatment was initiated by intraperitoneally (i.p.) injection of the indicated treatment, in a volume of 250 uL, once a day, every day, 6 days a week. […]

[1] = 40 mg/kg i.p. daily + Hamsa treatment (cimetidine, sulfasalazine, diclofenac, cyclophosphamide)
[2] = 40 mg/kg in vehicle, daily, s.c. EMT6/CTX tumor, tumor volume by caliper

SMILES	effect on tumor growth in combination with Hamsa treatment [1]	effect on tumor growth, agent alone [2]	effect on tumor growth in combination with Hamsa treatment (2.5 mg/kg i.p. daily + Hamsa treatment (low dose))	effect on tumor growth, agent alone (2.5 mg/kg in vehicle, daily (low dose))	inhibition of tumor growth, alone and in combination with Hamsa treatment (summary of experiments 1-4)
CCCCCCCCCCCCCCCCCC[N+](C)(C)CCCCS(=O)(=O)[O-] [SB-18-4, N,N-Dimethyloctadecyl-ammonium-1-(4-butylsulfonate)]	has a synergistic effect	has an anti-tumor effect	–	–	–
CCCCCCCCCCCC[N+](C)(C)CCCS(=O)(=O)[O-] [SB-12, N-Dodecyl-N,N-Dimethyl-3-Ammonio-1-Propane Sulfonate, reference compound]	compromises the anti-tumor effect of Hamsa treatment	–	slightly compromises the anti-tumor effect of the Hamsa treatment	does not inhibit tumor growth, but rather enhances tumor-growth	did not
CCCCCCCCCCCCCCCCCC[N+](C)(C)CCCS(=O)(=O)[O-] [SB-18, N-Octadecyl-N,N-Dimethyl-3-Ammonio-1-Propane Sulfonate]	has a synergistic effect	has an anti-tumor effect	–	–	inhibited tumor growth
CCCCCCCCCCCCCCCC[N+](C)(C)CCCCS(=O)(=O)[O-] [SB-16-4, N,N-Dimethylhexadecyl-ammonium-1-(4-butylsulfonate)]	has a synergistic effect	has an anti-tumor effect	–	–	–
CC(CCC(=O)NCCC[N+](C)(C)CCCS(=O)(=O)[O-])C1CCC2C3C(O)CC4CC(O)CCC4(C)C3CC(O)C12C (centres unmarked) [CHAPS, 3-[3-(Cholamidopropyl)dimethylamonio]-1-propanesulfonate]	has a synergistic effect	has an anti-tumor effect	–	–	inhibited tumor growth

Reference: patent publication US20110071100A1, “SULFOBETAINES FOR CANCER, OBESITY, MACULAR DEGENERATION, NEURODEGENERATIVE DISEASES” (TILTAN PHARMA LTD., priority 2008, published 2011)
